Where two headings read alike, the source gives them in different places.
Columns and labels:
[1] = molecular target: ErbB2 insYVMA (HER2-YVMA, SEQ ID NO: 2) (Homo sapiens, UniProt P04626, INS775YVMA/P1170A); assay: biochemical; settings: ErbB2 insYVMA enzyme assay
ErbB2 WT = ErbB2 WT (Homo sapiens (Human), UniProt P04626); assay: ErbB enzyme assay (CisBio HTRF KinEASE-TK), Assay 2; format: biochemical
Method in brief: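 ErbB2 phosphorylates 250 nM biotin-TK substrate at 1 mM ATP in 25 mM HEPES pH 7.4, 10 mM MgCl2, 0.01% Triton X-100 and 2% DMSO, for 30 min at 22 °C. Product is detected by HTRF with Sa-XL665 and TK-Ab-Cryptate. Percent of control is set by DMSO-only wells and pre-quenched wells.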

EGFR = EGFR (Homo sapiens (Human), UniProt P00533); assay: ErbB enzyme assay (CisBio HTRF KinEASE-TK), Assay 3; format: biochemical
Sequence of EGFR (P00533 25-1210): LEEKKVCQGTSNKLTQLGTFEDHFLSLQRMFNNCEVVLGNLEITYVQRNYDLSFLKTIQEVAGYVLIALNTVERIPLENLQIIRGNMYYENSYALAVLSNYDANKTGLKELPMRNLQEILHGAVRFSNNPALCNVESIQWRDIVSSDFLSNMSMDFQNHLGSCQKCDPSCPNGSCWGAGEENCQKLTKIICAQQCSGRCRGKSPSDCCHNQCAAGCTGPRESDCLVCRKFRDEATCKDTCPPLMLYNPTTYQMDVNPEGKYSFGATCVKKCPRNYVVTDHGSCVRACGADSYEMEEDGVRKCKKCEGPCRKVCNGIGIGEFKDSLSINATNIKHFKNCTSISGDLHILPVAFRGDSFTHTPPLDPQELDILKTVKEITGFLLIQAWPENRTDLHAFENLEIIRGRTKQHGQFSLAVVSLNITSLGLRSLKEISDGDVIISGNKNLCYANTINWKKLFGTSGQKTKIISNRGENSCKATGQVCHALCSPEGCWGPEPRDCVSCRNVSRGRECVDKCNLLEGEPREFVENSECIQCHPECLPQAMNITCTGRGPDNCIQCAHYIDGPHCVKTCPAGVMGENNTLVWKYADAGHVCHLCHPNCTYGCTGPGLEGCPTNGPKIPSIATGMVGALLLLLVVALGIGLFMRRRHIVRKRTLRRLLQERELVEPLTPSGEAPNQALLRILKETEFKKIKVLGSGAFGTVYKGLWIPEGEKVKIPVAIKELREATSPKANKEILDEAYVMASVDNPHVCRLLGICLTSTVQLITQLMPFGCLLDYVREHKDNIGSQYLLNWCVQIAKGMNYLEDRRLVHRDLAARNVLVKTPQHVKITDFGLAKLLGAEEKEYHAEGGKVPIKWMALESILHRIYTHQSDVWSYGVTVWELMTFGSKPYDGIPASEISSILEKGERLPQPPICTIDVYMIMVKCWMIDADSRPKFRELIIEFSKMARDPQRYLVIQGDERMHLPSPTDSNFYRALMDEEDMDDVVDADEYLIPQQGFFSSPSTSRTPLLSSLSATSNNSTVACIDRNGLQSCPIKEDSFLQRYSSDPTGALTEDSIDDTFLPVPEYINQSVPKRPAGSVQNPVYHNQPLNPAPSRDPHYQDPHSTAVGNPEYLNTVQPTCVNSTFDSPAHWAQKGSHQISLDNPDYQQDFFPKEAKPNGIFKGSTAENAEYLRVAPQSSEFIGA
Method in brief: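 HTRF KinEASE-TK assay: kinase with 250 nM biotinylated TK-substrate and 1 mM ATP in 25 mM HEPES pH 7.4, 10 mM MgCl2, 0.01% Triton X-100, 2% DMSO, 30 min at 22 °C. Quenched with Sa-XL665/TK-Ab-Cryptate, read after 1 h. IC50 from 4-parameter fit of percent of control.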

[2] = molecular target: ErbB2 with Exon 20 YVMA insertion (HER2-YVMA) (Homo sapiens (Human), UniProt P04626, INS775YVMA); assay: Cellular phosphorylation assay, constitutive ErbB2 phosphorylation (Y1196) in engineered NIH 3T3 cells, Assay 4; format: cell-based
Method in brief: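 Engineered NIH 3T3 cells expressing HER2-YVMA treated with compounds 1 h at 37 °C, then formaldehyde-fixed and methanol-permeabilized. pErbB2 Y1196 detected by in-cell infrared immunofluorescence, normalized to GAPDH. IC50 from the normalized curves.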

EGFR wild type (EGFR WT) = EGFR wild type (EGFR WT) (Homo sapiens (Human), UniProt P00533); assay: Cellular phosphorylation assay, EGF-stimulated EGFR phosphorylation in engineered NIH 3T3 cells, Phospho-EGFR DuoSet IC ELISA, Assay 5; format: cell-based
Sequence of EGFR wild type (EGFR WT) (P00533 25-1210): as above
Method in brief: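 NIH 3T3 cells expressing EGFR WT (20,000/well, attached overnight) were exposed to serially diluted compound for 1 h at 37 °C, then stimulated with 100 ng/ml rEGF for 10 min. Phospho-EGFR in lysates measured by sandwich ELISA optical density; IC50 from curves.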

Sequence of ErbB2 insYVMA (HER2-YVMA, SEQ ID NO: 2) (P04626 with tags, fused parts or gaps INS775YVMA/P1170A limits assumed): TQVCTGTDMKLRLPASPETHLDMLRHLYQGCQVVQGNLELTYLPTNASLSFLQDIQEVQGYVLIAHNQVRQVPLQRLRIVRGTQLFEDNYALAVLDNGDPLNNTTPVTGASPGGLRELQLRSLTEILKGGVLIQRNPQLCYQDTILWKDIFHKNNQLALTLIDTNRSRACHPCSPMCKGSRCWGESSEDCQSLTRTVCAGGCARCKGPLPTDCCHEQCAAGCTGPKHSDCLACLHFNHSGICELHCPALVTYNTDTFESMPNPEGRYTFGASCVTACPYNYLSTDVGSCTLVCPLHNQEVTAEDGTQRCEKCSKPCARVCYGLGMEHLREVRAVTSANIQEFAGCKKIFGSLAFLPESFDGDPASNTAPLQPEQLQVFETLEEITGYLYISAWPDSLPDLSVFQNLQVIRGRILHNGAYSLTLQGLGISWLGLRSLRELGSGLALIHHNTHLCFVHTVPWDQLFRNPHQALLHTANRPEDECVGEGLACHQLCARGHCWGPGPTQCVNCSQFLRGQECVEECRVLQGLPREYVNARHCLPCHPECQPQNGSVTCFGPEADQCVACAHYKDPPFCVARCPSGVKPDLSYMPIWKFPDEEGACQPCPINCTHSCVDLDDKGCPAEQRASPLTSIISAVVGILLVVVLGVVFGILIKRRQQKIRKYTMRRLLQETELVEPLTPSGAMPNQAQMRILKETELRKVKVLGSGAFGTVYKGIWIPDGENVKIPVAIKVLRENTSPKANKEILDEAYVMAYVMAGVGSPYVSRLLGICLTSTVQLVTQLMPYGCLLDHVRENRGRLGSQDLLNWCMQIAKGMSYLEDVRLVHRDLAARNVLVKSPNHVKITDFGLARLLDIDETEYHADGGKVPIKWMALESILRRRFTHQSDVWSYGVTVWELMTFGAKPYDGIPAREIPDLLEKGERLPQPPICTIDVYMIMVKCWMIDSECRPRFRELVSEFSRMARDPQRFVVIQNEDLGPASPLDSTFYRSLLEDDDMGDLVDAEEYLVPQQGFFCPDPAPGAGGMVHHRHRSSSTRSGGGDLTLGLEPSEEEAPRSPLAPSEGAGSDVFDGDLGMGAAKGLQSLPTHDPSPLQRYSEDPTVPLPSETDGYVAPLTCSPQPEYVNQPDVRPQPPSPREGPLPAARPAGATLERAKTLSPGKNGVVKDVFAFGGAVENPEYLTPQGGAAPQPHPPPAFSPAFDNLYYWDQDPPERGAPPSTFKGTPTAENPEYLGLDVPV
Sequence of ErbB2 WT (P04626 23-1255): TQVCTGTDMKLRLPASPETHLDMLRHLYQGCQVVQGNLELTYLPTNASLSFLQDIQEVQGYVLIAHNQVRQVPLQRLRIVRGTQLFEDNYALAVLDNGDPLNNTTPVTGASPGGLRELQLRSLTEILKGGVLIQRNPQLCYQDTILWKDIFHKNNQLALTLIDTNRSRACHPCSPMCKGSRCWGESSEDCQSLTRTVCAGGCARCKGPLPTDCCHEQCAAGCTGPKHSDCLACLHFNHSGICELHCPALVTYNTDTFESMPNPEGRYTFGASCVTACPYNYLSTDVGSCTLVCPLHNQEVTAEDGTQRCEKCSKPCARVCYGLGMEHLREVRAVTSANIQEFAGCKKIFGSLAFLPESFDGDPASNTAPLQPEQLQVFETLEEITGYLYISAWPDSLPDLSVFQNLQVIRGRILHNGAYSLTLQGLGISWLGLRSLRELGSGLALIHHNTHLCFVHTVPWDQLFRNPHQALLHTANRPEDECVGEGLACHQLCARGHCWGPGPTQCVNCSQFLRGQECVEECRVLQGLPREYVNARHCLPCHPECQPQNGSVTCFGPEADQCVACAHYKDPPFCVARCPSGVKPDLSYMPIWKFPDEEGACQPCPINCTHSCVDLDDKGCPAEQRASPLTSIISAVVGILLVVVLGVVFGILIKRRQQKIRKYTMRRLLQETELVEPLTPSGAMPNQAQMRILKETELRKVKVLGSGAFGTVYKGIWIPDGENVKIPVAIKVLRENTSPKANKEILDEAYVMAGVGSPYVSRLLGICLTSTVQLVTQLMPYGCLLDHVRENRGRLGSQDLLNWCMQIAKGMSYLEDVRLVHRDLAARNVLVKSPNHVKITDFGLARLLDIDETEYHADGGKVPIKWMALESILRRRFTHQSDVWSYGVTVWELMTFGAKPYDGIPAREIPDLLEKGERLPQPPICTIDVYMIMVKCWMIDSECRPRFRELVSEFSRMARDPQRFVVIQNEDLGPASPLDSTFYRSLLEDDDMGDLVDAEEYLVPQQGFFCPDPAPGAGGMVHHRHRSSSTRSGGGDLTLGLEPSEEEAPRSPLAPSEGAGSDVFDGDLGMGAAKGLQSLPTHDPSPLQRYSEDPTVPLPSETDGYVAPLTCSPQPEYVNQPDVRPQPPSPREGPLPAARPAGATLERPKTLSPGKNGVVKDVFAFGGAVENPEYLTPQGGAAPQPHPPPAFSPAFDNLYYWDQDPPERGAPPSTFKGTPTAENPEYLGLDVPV

Cc1c(Oc2ccc3c(c2)ncn3C)ccc(Nc2ncnc3cnc(N(C)CC(C)(C)O)nc23)c1F [Example 438]
IC50 ([1]; read-out: Assay 1 IC50): 27.4 nM
IC50 (ErbB2 WT): 47 nM
IC50 (EGFR): ≥ 10000 nM
IC50 [2]: 134 nM
IC50 (EGFR wild type (EGFR WT)): ≥ 5000 nM

Cc1cc(Nc2ncnc3cnc(N4CC[C@@H](CC#N)C4)nc23)ccc1Oc1ccc2c(c1)ncn2C [Example 201, (S)-2-(1-(8-((3-methyl-4-((1-methyl-1H-benzo[d]imidazol-5-yl)oxy)phenyl)amino)pyrimido[5,4-d]pyrimidin-2-yl)pyrrolidin-3-yl)acetonitrile]
IC50 ([1]; read-out: Assay 1 IC50): 27.7 nM
IC50 (ErbB2 WT): 88.8 nM
IC50 (EGFR): ≥ 10000 nM
IC50 [2]: 9.9 nM
IC50 (EGFR wild type (EGFR WT)): ≥ 5000 nM

Cn1cnc2cc(Oc3ccc(Nc4ncnc5cnc(N6CC7(CCOC7)C6)nc45)cc3Cl)ccc21 [Example 442]
IC50 ([1]; Assay 1 IC50 (nM)): 69.5 nM
IC50 (ErbB2 WT): 180 nM
IC50 (EGFR): ≥ 10000 nM
IC50 [2]: 105 nM
IC50 (EGFR wild type (EGFR WT)): ≥ 5000 nM

Clc1cc(Nc2ncnc3cnc(N4C5CCC4COC5)nc23)ccc1Oc1ccn2ncnc2c1 [Example 322]
IC50 ([1]; read-out: Assay 1 IC50): 21.6 nM
IC50 (ErbB2 WT): 62.1 nM
IC50 (EGFR): ≥ 10000 nM
IC50 [2]: 102 nM
IC50 (EGFR wild type (EGFR WT)): ≥ 5000 nM

Clc1cc(Nc2ncnc3cnc(N4CC5CCC(C4)O5)nc23)ccc1Oc1ccn2ncnc2c1 [Example 383]
IC50 ([1]; read-out: Assay 1 IC50): 56.3 nM
IC50 (ErbB2 WT): 75.3 nM
IC50 (EGFR): ≥ 10000 nM
IC50 [2]: 4140 nM
IC50 (EGFR wild type (EGFR WT)): ≥ 5000 nM

O[C@@H]1CN(c2ncc3ncnc(Nc4ccc(Oc5ccn6ncnc6c5)c(Cl)c4)c3n2)CC1(F)F [Example 323]
IC50 ([1]; read-out: Assay 1 IC50): 12.2 nM
IC50 (ErbB2 WT): 75.4 nM
IC50 (EGFR): 9720 nM
IC50 [2]: 59.9 nM
IC50 (EGFR wild type (EGFR WT)): ≥ 5000 nM

Cc1c(Oc2ccc3c(c2)ncn3C)ccc(Nc2ncnc3cnc(N4C[C@H]5C[C@@H]4CO5)nc23)c1F [Example 457]
IC50 ([1]; read-out: Assay 1 IC50): 25.1 nM
IC50 (ErbB2 WT): 83.9 nM
IC50 (EGFR): 8240 nM
IC50 [2]: 50.6 nM
IC50 (EGFR wild type (EGFR WT)): ≥ 5000 nM

Cc1cc(Nc2ncnc3cnc(N(C)[C@@H]4CCOC4)nc23)ccc1Oc1ccn2ncnc2c1 [Example 427]
IC50 ([1]; read-out: Assay 1 IC50): 25 nM
IC50 (ErbB2 WT): 43.1 nM
IC50 (EGFR): 7940 nM
IC50 [2]: 121 nM
IC50 (EGFR wild type (EGFR WT)): ≥ 5000 nM

Cc1cc(Nc2ncnc3cnc(N4CC[C@H]4C(C)(C)O)nc23)ccc1Oc1ccn2ncnc2c1 [Example 370]
IC50 ([1]; read-out: Assay 1 IC50): 57.9 nM
IC50 (ErbB2 WT): 129 nM
IC50 (EGFR): ≥ 10000 nM
IC50 [2]: 2500 nM
IC50 (EGFR wild type (EGFR WT)): ≥ 5000 nM

Cc1cc(Nc2ncnc3cnc(N4CC[C@@H](C(F)F)C4)nc23)ccc1Oc1ccn2ncnc2c1 [Example 400]
IC50 ([1]; read-out: Assay 1 IC50): 8.7 nM
IC50 (ErbB2 WT): 40.7 nM
IC50 (EGFR): 8420 nM
IC50 [2]: 218 nM
IC50 (EGFR wild type (EGFR WT)): ≥ 5000 nM

Cc1c(Oc2ccc3c(c2)ncn3C)ccc(Nc2ncnc3cnc(N(C)C)nc23)c1F [Example 71, N8-(2-fluoro-3-methyl-4-((1-methyl-1H-benzo[d]imidazol-5-yl)oxy)phenyl)-N2,N2-dimethylpyrimido[5,4-d]pyrimidine-2,8-diamine 2,2,2-trifluoroacetate]
IC50 ([1]; Assay 1 IC50 (nM)): 70.2 nM
IC50 (ErbB2 WT): 299 nM
IC50 (EGFR): ≥ 10000 nM
IC50 [2]: 76.6 nM
IC50 (EGFR wild type (EGFR WT)): ≥ 5000 nM

Cc1cc(Nc2ncnc3cnc(N(C)[C@H]4CCOC4)nc23)ccc1Oc1ccn2ncnc2c1 [Example 381]
IC50 ([1]; read-out: Assay 1 IC50): 15.4 nM
IC50 (ErbB2 WT): 9.4 nM
IC50 (EGFR): 5040 nM
IC50 [2]: 265 nM
IC50 (EGFR wild type (EGFR WT)): ≥ 5000 nM

Cc1cc(Nc2ncnc3cnc(OCC4(F)CNC4)nc23)ccc1Oc1ccc2c(c1)ncn2C [Example 291]
IC50 ([1]; read-out: Assay 1 IC50): 76.2 nM
IC50 (ErbB2 WT): 446 nM
IC50 (EGFR): ≥ 10000 nM
IC50 [2]: 84.1 nM
IC50 (EGFR wild type (EGFR WT)): ≥ 5000 nM

CON1CCN(c2ncc3ncnc(Nc4ccc(Oc5ccn6ncnc6c5)c(C)c4)c3n2)CC1 [Example 96, N-(4-([1,2,4]triazolo[1,5-a]pyridin-7-yloxy)-3-methylphenyl)-6-(4-methoxypiperazin-1-yl)pyrimido[5,4-d]pyrimidin-4-amine]
IC50 ([1]; read-out: Assay 1 IC50): 23.1 nM
IC50 (ErbB2 WT): 81.2 nM
IC50 (EGFR): 8890 nM
IC50 [2]: 96.1 nM
IC50 (EGFR wild type (EGFR WT)): ≥ 5000 nM

Cc1c(Oc2ccc3c(c2)ncn3C)ccc(Nc2ncnc3cnc(N4CC[C@@H](O)C4)nc23)c1F [Example 392]
IC50 ([1]; read-out: Assay 1 IC50): 16.6 nM
IC50 (ErbB2 WT): 14.6 nM
IC50 (EGFR): ≥ 10000 nM
IC50 [2]: 79.9 nM
IC50 (EGFR wild type (EGFR WT)): ≥ 5000 nM

From patent publication US11834453B2, “Substituted pyrimido[5,4-d]pyrimidines as HER2 inhibitors” (Array BioPharma Inc., priority 2020, dated 2023)
